Assay results: patent US20240173432A1, “Compositions and Methods for Treatment of Myotonic Dystrophy Type 1 with CRISPR/SluCas9” (Vertex Pharmaceuticals Incorporated, priority 2021, published 2024)

Key:
[1] = test system: CTG repeat in the 3′ UTR of human DMPK gene; experiment: Dual-cut screening: CTG repeat excision efficiency by loss-of-signal ddPCR; format: cell-based; details: sgRNA pair, primary DM1 patient myoblasts; for Excision efficiency (by ddPCR): 3 μM DNA-PKi Compound 6 for 48 hours; for Excision efficiency by ddPCR (Vehicle): vehicle (DMSO)
Method in brief: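 Upstream and downstream SluCas9 RNPs (20 pmol protein, 60 pmol sgRNA each) mixed 1:1 and nucleofected into primary DM1 patient myoblasts, then treated 48 h with DMSO or 3 μM DNA-PKi Compound 6. Genomic DNA taken 72 h post-nucleofection; excision read as loss of target signal by ddPCR versus a DMPK exon 1 reference.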

[2] = test system: CUG foci in primary DM1 patient myoblasts; experiment: Dual-cut screening: FISH staining of CUG RNA foci; format: cell-based, human; details: sgRNA pair, primary DM1 patient myoblasts; for % of CUG foci free nuclei (DNA-PKi): 3 μM DNA-PKi Compound 6 for 48 hours; for % of CUG foci free nuclei (Vehicle): vehicle (DMSO)
Method in brief: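 SluCas9 RNPs (protein:sgRNA 1:3; 20 pmol SluCas9 + 60 pmol sgRNA per guide, paired 1:1) nucleofected into primary DM1 patient myoblasts, then DMSO or 3 μM DNA-PKi Compound 6 for 48 h. At 72 h post-nucleofection cells fixed, FISH-stained with Cy3-PNA(CAG)5 probe plus anti-MBNL1 and Hoechst; % CUG foci-free nuclei by high-content confocal imaging.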

## SluU62 + SluD48 (guide 1 AGGACCCTTCGAGCCCCGTTCG; guide 2 GAGAGCAGCGCAAGTGAGGAGG; guide RNA; listed as DNA, chemistry not fully specified)
[1]
  Excision efficiency (by ddPCR): 66.36
  Excision efficiency by ddPCR (Vehicle): 35.6
[2]
  % of CUG foci free nuclei (DNA-PKi): 88.08%
  % of CUG foci free nuclei (Vehicle): 54.22%

## SluU62 + SluD56 (guide 1 AGGACCCTTCGAGCCCCGTTCG; guide 2 CCAGCCGGCTCCGCCCGCTTCG; guide RNA; listed as DNA, chemistry not fully specified)
[1]
  Excision efficiency (by ddPCR): 61.21
  Excision efficiency by ddPCR (Vehicle): 32.08
[2]
  % of CUG foci free nuclei (DNA-PKi): 84.3%
  % of CUG foci free nuclei (Vehicle): 36.42%

## SluU62 + SluD68 (guide 1 AGGACCCTTCGAGCCCCGTTCG; guide 2 CCTGTAGCCTGTCAGCGAGTCG; guide RNA; listed as DNA, chemistry not fully specified)
[1]
  Excision efficiency (by ddPCR): 63.55
  Excision efficiency by ddPCR (Vehicle): 33.08
[2]
  % of CUG foci free nuclei (DNA-PKi): 87.71%
  % of CUG foci free nuclei (Vehicle): 49.06%

## SluU62 + SluD73 (guide 1 AGGACCCTTCGAGCCCCGTTCG; guide 2 CCAAAACGTGGATTGGGGTTGT; guide RNA; listed as DNA, chemistry not fully specified)
[1]
  Excision efficiency (by ddPCR): 65.89
  Excision efficiency by ddPCR (Vehicle): 38.11
[2]
  % of CUG foci free nuclei (DNA-PKi): 88.13%
  % of CUG foci free nuclei (Vehicle): 52.87%

## SluU62 + SluD83 (guide 1 AGGACCCTTCGAGCCCCGTTCG; guide 2 GTGGGGACAGACAATAAATACC; guide RNA; listed as DNA, chemistry not fully specified)
[1]
  Excision efficiency (by ddPCR): 68.69
  Excision efficiency by ddPCR (Vehicle): 43.14
[2]
  % of CUG foci free nuclei (DNA-PKi): 88.94%
  % of CUG foci free nuclei (Vehicle): 56.65%

## SluU62 + SluD100 (guide 1 AGGACCCTTCGAGCCCCGTTCG; guide 2 GTCCAGAGCTTTGGGCAGATGG; guide RNA; listed as DNA, chemistry not fully specified)
[1]
  Excision efficiency (by ddPCR): 64.02
  Excision efficiency by ddPCR (Vehicle): 37.11
[2]
  % of CUG foci free nuclei (DNA-PKi): 88.35%
  % of CUG foci free nuclei (Vehicle): 53.45%

## SluU63 + SluD32 (guide 1 GGGGCTCGAAGGGTCCTTGTAG; guide 2 CTTGTGCATGACGCCCTGCTCT; guide RNA; listed as DNA, chemistry not fully specified)
[1]
  Excision efficiency (by ddPCR): 94.81
  Excision efficiency by ddPCR (Vehicle): 60.75
[2]
  % of CUG foci free nuclei (DNA-PKi): 89.04%
  % of CUG foci free nuclei (Vehicle): 75.26%

## SluU63 + SluD34 (guide 1 GGGGCTCGAAGGGTCCTTGTAG; guide 2 CGCGCCAGACGCTCCCCAGAGC; guide RNA; listed as DNA, chemistry not fully specified)
[1]
  Excision efficiency (by ddPCR): 93.5
  Excision efficiency by ddPCR (Vehicle): 63.27
[2]
  % of CUG foci free nuclei (DNA-PKi): 87.25%
  % of CUG foci free nuclei (Vehicle): 77.85%

## SluU63 + SluD48 (guide 1 GGGGCTCGAAGGGTCCTTGTAG; guide 2 GAGAGCAGCGCAAGTGAGGAGG; guide RNA; listed as DNA, chemistry not fully specified)
[1]
  Excision efficiency (by ddPCR): 94.25
  Excision efficiency by ddPCR (Vehicle): 63.77
[2]
  % of CUG foci free nuclei (DNA-PKi): 90.03%
  % of CUG foci free nuclei (Vehicle): 73.73%

## SluU63 + SluD56 (guide 1 GGGGCTCGAAGGGTCCTTGTAG; guide 2 CCAGCCGGCTCCGCCCGCTTCG; guide RNA; listed as DNA, chemistry not fully specified)
[1]
  Excision efficiency (by ddPCR): 90.05
  Excision efficiency by ddPCR (Vehicle): 50.69
[2]
  % of CUG foci free nuclei (DNA-PKi): 88.12%
  % of CUG foci free nuclei (Vehicle): 60.91%

## SluU63 + SluD68 (guide 1 GGGGCTCGAAGGGTCCTTGTAG; guide 2 CCTGTAGCCTGTCAGCGAGTCG; guide RNA; listed as DNA, chemistry not fully specified)
[1]
  Excision efficiency (by ddPCR): 93.64
  Excision efficiency by ddPCR (Vehicle): 57.23
[2]
  % of CUG foci free nuclei (DNA-PKi): 90.625%
  % of CUG foci free nuclei (Vehicle): 71.74%

## SluU63 + SluD73 (guide 1 GGGGCTCGAAGGGTCCTTGTAG; guide 2 CCAAAACGTGGATTGGGGTTGT; guide RNA; listed as DNA, chemistry not fully specified)
[1]
  Excision efficiency (by ddPCR): 95.51
  Excision efficiency by ddPCR (Vehicle): 63.27
[2]
  % of CUG foci free nuclei (DNA-PKi): 90.58%
  % of CUG foci free nuclei (Vehicle): 70.03%

## SluU63 + SluD83 (guide 1 GGGGCTCGAAGGGTCCTTGTAG; guide 2 GTGGGGACAGACAATAAATACC; guide RNA; listed as DNA, chemistry not fully specified)
[1]
  Excision efficiency (by ddPCR): 93.27
  Excision efficiency by ddPCR (Vehicle): 58.74
[2]
  % of CUG foci free nuclei (DNA-PKi): 89.8%
  % of CUG foci free nuclei (Vehicle): 74.11%

## SluU63 + SluD100 (guide 1 GGGGCTCGAAGGGTCCTTGTAG; guide 2 GTCCAGAGCTTTGGGCAGATGG; guide RNA; listed as DNA, chemistry not fully specified)
[1]
  Excision efficiency (by ddPCR): 91.5
  Excision efficiency by ddPCR (Vehicle): 58.24
[2]
  % of CUG foci free nuclei (DNA-PKi): 89.97%
  % of CUG foci free nuclei (Vehicle): 73.15%

## SluU64 + SluD32 (guide 1 GGGCTCGAAGGGTCCTTGTAGC; guide 2 CTTGTGCATGACGCCCTGCTCT; guide RNA; listed as DNA, chemistry not fully specified)
[1]
  Excision efficiency (by ddPCR): 85.56
  Excision efficiency by ddPCR (Vehicle): 60.75
[2]
  % of CUG foci free nuclei (DNA-PKi): 89.99%
  % of CUG foci free nuclei (Vehicle): 77.6%

## SluU64 + SluD34 (guide 1 GGGCTCGAAGGGTCCTTGTAGC; guide 2 CGCGCCAGACGCTCCCCAGAGC; guide RNA; listed as DNA, chemistry not fully specified)
[1]
  Excision efficiency (by ddPCR): 79.91
  Excision efficiency by ddPCR (Vehicle): 76.35
[2]
  % of CUG foci free nuclei (DNA-PKi): 91.45%
  % of CUG foci free nuclei (Vehicle): 83.68%

## SluU64 + SluD48 (guide 1 GGGCTCGAAGGGTCCTTGTAGC; guide 2 GAGAGCAGCGCAAGTGAGGAGG; guide RNA; listed as DNA, chemistry not fully specified)
[1]
  Excision efficiency (by ddPCR): 80.84
  Excision efficiency by ddPCR (Vehicle): 47.67
[2]
  % of CUG foci free nuclei (DNA-PKi): 88.44%
  % of CUG foci free nuclei (Vehicle): 75.45%

## SluU64 + SluD56 (guide 1 GGGCTCGAAGGGTCCTTGTAGC; guide 2 CCAGCCGGCTCCGCCCGCTTCG; guide RNA; listed as DNA, chemistry not fully specified)
[1]
  Excision efficiency (by ddPCR): 67.76
  Excision efficiency by ddPCR (Vehicle): 42.14
[2]
  % of CUG foci free nuclei (DNA-PKi): 87.6%
  % of CUG foci free nuclei (Vehicle): 60.36%

## SluU64 + SluD68 (guide 1 GGGCTCGAAGGGTCCTTGTAGC; guide 2 CCTGTAGCCTGTCAGCGAGTCG; guide RNA; listed as DNA, chemistry not fully specified)
[1]
  Excision efficiency (by ddPCR): 72.9
  Excision efficiency by ddPCR (Vehicle): 46.16
[2]
  % of CUG foci free nuclei (DNA-PKi): 89.56%
  % of CUG foci free nuclei (Vehicle): 74.94%

## SluU64 + SluD73 (guide 1 GGGCTCGAAGGGTCCTTGTAGC; guide 2 CCAAAACGTGGATTGGGGTTGT; guide RNA; listed as DNA, chemistry not fully specified)
[1]
  Excision efficiency (by ddPCR): 74.77
  Excision efficiency by ddPCR (Vehicle): 50.69
[2]
  % of CUG foci free nuclei (DNA-PKi): 91.02%
  % of CUG foci free nuclei (Vehicle): 70.19%

## SluU64 + SluD83 (guide 1 GGGCTCGAAGGGTCCTTGTAGC; guide 2 GTGGGGACAGACAATAAATACC; guide RNA; listed as DNA, chemistry not fully specified)
[1]
  Excision efficiency (by ddPCR): 78.97
  Excision efficiency by ddPCR (Vehicle): 55.22
[2]
  % of CUG foci free nuclei (DNA-PKi): 90.63%
  % of CUG foci free nuclei (Vehicle): 76.55%

## SluU64 + SluD100 (guide 1 GGGCTCGAAGGGTCCTTGTAGC; guide 2 GTCCAGAGCTTTGGGCAGATGG; guide RNA; listed as DNA, chemistry not fully specified)
[1]
  Excision efficiency (by ddPCR): 68.22
  Excision efficiency by ddPCR (Vehicle): 45.16
[2]
  % of CUG foci free nuclei (DNA-PKi): 85.89%
  % of CUG foci free nuclei (Vehicle): 69.88%
